Results taken from PubChem BioAssay (NCI).
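At the GI50, growth is halved. TGI denotes the concentration required for complete inhibition of growth.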

How the values were obtained:
Assay in all cases: DTP human tumour cell line panel, 384-well format
[1] = test system: 786-0 renal
[2] = test system: A498 renal
[3] = test system: A549 NSCLC
[4] = test system: ACHN renal
[5] = test system: BT-549 breast
[6] = test system: CAKI-1 renal
[7] = test system: CCRF-CEM leukemia
[8] = test system: COLO 205 colon
[9] = test system: DU-145 prostate
[10] = test system: EKVX NSCLC
[11] = test system: HCC-2998 colon
[12] = test system: HCT-15 colon
[13] = test system: HL-60(TB) leukemia
[14] = test system: HOP-62 NSCLC
[15] = test system: HOP-92 NSCLC
[16] = test system: HS 578T breast
[17] = test system: HT29 colon
[18] = test system: IGROV1 ovarian
[19] = test system: K-562 leukemia
[20] = test system: KM12 colon
[21] = test system: LOX IMVI melanoma
[22] = test system: M14 melanoma
[23] = test system: MALME-3M melanoma
[24] = test system: MCF7 breast
[25] = test system: MDA-MB-231 breast
[26] = test system: MDA-MB-435 melanoma
[27] = test system: MDA-MB-468 breast
[28] = test system: MOLT-4 leukemia
[29] = test system: NCI-H226 lung
[30] = test system: NCI-H23 lung
[31] = test system: NCI-H322M lung
[32] = test system: NCI-H460 NSCLC
[33] = test system: NCI-H522 lung
[34] = test system: NCI/ADR-RES ovarian
[35] = test system: OVCAR-3 ovarian
[36] = test system: OVCAR-4 ovarian
[37] = test system: OVCAR-5 ovarian
[38] = test system: OVCAR-8 ovarian
[39] = test system: PC-3 prostate
[40] = test system: RPMI-8226 leukemia
[41] = test system: RXF 393 renal
[42] = test system: SF-268 CNS
[43] = test system: SF-295 CNS
[44] = test system: SF-539 CNS
[45] = test system: SK-MEL-28 melanoma
[46] = test system: SK-MEL-5 melanoma
[47] = test system: SK-OV-3 ovarian
[48] = test system: SN12C renal
[49] = test system: SNB-19 CNS
[50] = test system: SNB-75 CNS
[51] = test system: SR leukemia
[52] = test system: SW-620 colon
[53] = test system: T-47D breast
[54] = test system: TK-10 renal
[55] = test system: UACC-257 melanoma
[56] = test system: UACC-62 melanoma
[57] = test system: UO-31 renal

SMILES: C=CC(=O)N1CCN(c2ncnc3c(F)c(-c4c(O)cccc4F)c(Cl)cc23)CC1
- GI50 [1]: 3.34 µM
- TGI [1]: 12.4 µM
- GI50 [2]: 2.05 µM
- TGI [2]: 6.37 µM
- GI50 [3]: 2.36 µM
- TGI [3]: 5.74 µM
- GI50 [4]: 2.27 µM
- TGI [4]: 5.89 µM
- GI50 [5]: 1.73 µM
- TGI [5]: 4.14 µM
- GI50 [6]: 3.07 µM
- TGI [6]: 12.9 µM
- GI50 [7]: 1.83 µM
- TGI [7]: 3.34 µM
- GI50 [8]: 2.33 µM
- TGI [8]: 5.19 µM
- GI50 [9]: 3.5 µM
- TGI [9]: 12.5 µM
- GI50 [10]: 5.74 µM
- TGI [10]: 18 µM
- GI50 [11]: 2.27 µM
- TGI [11]: 4.32 µM
- GI50 [12]: 2.5 µM
- TGI [12]: 6.08 µM
- GI50 [13]: 1.68 µM
- TGI [13]: 3.08 µM
- GI50 [14]: 1.21 µM
- TGI [14]: 4.8 µM
- GI50 [15]: 4.73 µM
- TGI [15]: 16.8 µM
- GI50 [16]: 1.71 µM
- TGI [16]: 3.87 µM
- GI50 [17]: 2.97 µM
- TGI [17]: 8.72 µM
- GI50 [18]: 3.5 µM
- TGI [18]: 11.8 µM
- GI50 [19]: 5.53 µM
- TGI [19]: 18.1 µM
- GI50 [20]: 2.92 µM
- TGI [20]: 9.85 µM
- GI50 [21]: 2.08 µM
- TGI [21]: 5.21 µM
- GI50 [22]: 1.98 µM
- TGI [22]: 4.68 µM
- GI50 [23]: 3.58 µM
- TGI [23]: 9.59 µM
- GI50 [24]: 2.95 µM
- TGI [24]: 9.01 µM
- GI50 [25]: 5.17 µM
- TGI [25]: 18.5 µM
- GI50 [26]: 3.91 µM
- TGI [26]: 13.9 µM
- GI50 [27]: 2.34 µM
- TGI [27]: 4.63 µM
- GI50 [28]: 2.08 µM
- TGI [28]: 3.62 µM
- GI50 [29]: 2.39 µM
- TGI [29]: 7.65 µM
- GI50 [30]: 0.0694 µM
- TGI [30]: 0.94 µM
- GI50 [31]: 3.22 µM
- TGI [31]: 10.3 µM
- GI50 [32]: 2.78 µM
- TGI [32]: 7.79 µM
- GI50 [33]: 3.1 µM
- TGI [33]: 8.43 µM
- GI50 [34]: 14 µM
- TGI [34]: 28.3 µM
- GI50 [35]: 1.83 µM
- TGI [35]: 3.9 µM
- GI50 [36]: 5.97 µM
- TGI [36]: 18.2 µM
- GI50 [37]: 3.66 µM
- TGI [37]: 11.9 µM
- GI50 [38]: 2.46 µM
- TGI [38]: 6.4 µM
- GI50 [39]: 2.64 µM
- TGI [39]: 8.13 µM
- GI50 [40]: 1.6 µM
- TGI [40]: 3 µM
- GI50 [41]: 1.91 µM
- TGI [41]: 4.03 µM
- GI50 [42]: 2.09 µM
- TGI [42]: 5.38 µM
- GI50 [43]: 2.97 µM
- TGI [43]: 8.83 µM
- GI50 [44]: 2.4 µM
- TGI [44]: 5.02 µM
- GI50 [45]: 3.17 µM
- TGI [45]: 13.7 µM
- GI50 [46]: 2.39 µM
- TGI [46]: 5.66 µM
- GI50 [47]: 4.14 µM
- TGI [47]: 16.1 µM
- GI50 [48]: 4.48 µM
- TGI [48]: 15.4 µM
- GI50 [49]: 4.08 µM
- TGI [49]: 14.9 µM
- GI50 [50]: 3.41 µM
- TGI [50]: 16.7 µM
- GI50 [51]: 1 µM
- TGI [51]: 2.18 µM
- GI50 [52]: 3.78 µM
- TGI [52]: 11.3 µM
- GI50 [53]: 6.31 µM
- TGI [53]: 18.4 µM
- GI50 [54]: 8.84 µM
- TGI [54]: 30.7 µM
- GI50 [55]: 3.65 µM
- TGI [55]: 9.18 µM
- GI50 [56]: 1.59 µM
- TGI [56]: 4.76 µM
- GI50 [57]: 3.58 µM
- TGI [57]: 12.5 µM
